In US20160262394A1, “COMPOSITION COMPRISING AN ACTIVE AND A GRAFT COPOLYMER MADE OF N-VINYLLACTAM, VINYL ESTER, AND AN ALCOHOL ALKOXYLATE” (BASF SE, priority 2013, published 2016):
Values after ≈ are worked out from the molar mass of the structure shown. Each block holds one compound with its values, some of them ahead of it.

How the values were obtained:
[1] = Solubilization of active in 3 wt % polymer solution (high-throughput robot, UV/VIS); type: physicochemical
Method: Solubilization measurements were carried out with a highthroughput screening robot. This setup dosed 10 mg solid active and […] of the respective 3 wt % liquid polymer solution (in Cl-PAC water D) into wells on a micro titer plate. After the addition of stirring bars and 24 hours incubation time the samples were filtrated via polypropylene filters in order to separate dissolved active and its solid formatted. The amount of solubilized active was determined via UV/VIS spectroscopy.

[2] = at 20° C.; cited from earlier work

Compound: N#Cc1nn(-c2c(Cl)cc(C(F)(F)F)cc2Cl)c(N)c1[S+]([O-])C(F)(F)F (centres unmarked) [fipronil]
Solubility of fipronil [1]: 12 ppm

Solubility of Xemium ® (fluxapyroxad) ([1]; Active without polymer): 10 ppm
Compound: Cn1cc(C(=O)Nc2ccccc2-c2cc(F)c(F)c(F)c2)c(C(F)F)n1 [fluxapyroxad]
water solubility [2]: 4 µg/mL (≈ 10.5 µM)

Compound: CC(O)(Cn1cncn1)c1ccc(Oc2ccc(Cl)cc2)cc1C(F)(F)F (centres unmarked) [2-[4-(4-chlorophenoxy)-2-(trifluoromethyl)phenyl]-1-(1H-1,2,4-triazol-1-yl)propan-2-ol]
Solubility of the triazole fungicide 2-[4-(4-chlorophenoxy)-2-(trifluoromethyl)phenyl]-1-(1H-1,2,4-triazol-1-yl)propan-2-ol ([1]; Active without polymer): 15 ppm

Compound: NC(=O)N1c2ccccc2C=Cc2ccccc21 [cabamazepine]
Solubility of cabamazepine ([1]; Active without polymer): 181 ppm
